Values after ≈ are worked out from the molar mass of the structure shown. Blank lines part the entries; values can stand above or below the compound they belong to.
Key:
[1] = test system: breast cancer patients; details: intramuscular injection; cited from earlier work
[2] = oral administration; cited from earlier work
[3] = Solubility of crystalline forms (supersaturated suspension shaken at 37° C. for 24 h, HPLC-UV); type: physicochemical; details: thermodynamic from solid, 800 rpm
Experimental: 1-2 mg of a test sample was taken and placed in a semi-automatic filter vial, and 450 μL of purified water or FeSSIF simulated fluid (fed state simulated intestinal fluid) was added to give a supersaturated suspension. The sample was vortexed for at least 2 min. The vial was placed on a plate shaker and shaken at 37° C. at 800 rpm for 24 h. After centrifugal filtration, the sample was subjected to HPLC-UV linear quantitative analysis for concentration.
FeSSIF (fed state simulated intestinal fluid): an aqueous buffer solution comprising 0.282% (w/v) lecithin, 0.806% (w/v) sodium taurocholate, 0.865% (w/v) acetic acid, 1.52% (w/v) potassium chloride, with a pH of […]

[4] = Forced degradation experiment; type: physicochemical
Experimental: Control group: 20 mg of a sample was weighed out, a proper amount of diluent (acetonitrile:water=1:1, v/v) was added to dissolve the sample, and then the solution was brought to a volume of 100 mL with the diluent (acetonitrile:water=1:1, v/v). A proper amount of the solution was taken for analysis. Acidic degradation: 20 mg of the sample was weighed out, and 1 mL of a 1 M aqueous HCl solution was added. After sitting at room temperature for 24 h, the mixture was neutralized with 1 mL of a 1 M aqueous NaOH solution. The solution was brought to a volume of 100 mL with the diluent (acetonitrile:water=1:1, v/v). A proper amount of the solution was taken for analysis. Basic degradation: 20 mg of the sample was weighed out, and 1 mL of a 1 M aqueous NaOH solution was added. After sitting at room temperature for 24 h, the mixture was neutralized with 1 mL of a 1 M aqueous HCl solution. The solution was brought to a volume of 100 mL with the diluent (acetonitrile:water=1:1, v/v). A proper amount of the solution was taken for analysis. Oxidative degradation: 20 mg of the sample was weighed out, 1 mL of a 3% aqueous hydrogen peroxide solution was added, and the mixture was left at room temperature for 24 h. The solution was brought to a volume of 100 mL with the diluent (acetonitrile:water=1:1, v/v). A proper amount of the solution was taken for analysis.

[5] = Dynamic vapor sorption (DVS) hygroscopicity; type: physicochemical; details: from the DVS patterns, 25° C.
Experimental: 1.4. Dynamic Vapor Sorption (DVS) Method of the Present Application
Instrument model: DVS Intrinsic instrument from SMS (Surface Measurement Systems) Inc.
Temperature: 25° C.; sample amount: 10-30 mg; protective gas and flow: N2, 200 mL/min; dm/dt: 0.002%/min; minimum dm/dt equilibration time: 10 min; maximum equilibration time: 180 min; RH range: 0% RH-95% RH-0% RH; RH gradient: 10% (90% RH-0% RH-90% RH), 5% (95% RH-90% RH and 90% RH-95% RH).

[6] = In vivo pharmacokinetic study after a single oral dose; details: dog; female beagle dogs, single oral dose 100 mg/kg at 1 h after feeding, plasma, mean
Experimental: This experiment was intended to evaluate the pharmacokinetic behavior of the compound after a single intragastric administration and to investigate bioavailability after intragastric administration. Two female beagle dogs were each given a single oral dose of the crystalline form I of the compound of formula (II) at 100 mg/kg at 1 h after feeding, and plasma samples were taken at 0.0833 (5 min), 0.25 (15 min), 0.5 (30 min), 1, 2, 4, 6, 8, 12, and 24 h after administration and assayed for the concentration of the test substance by LC-MS/MS.

[7] = Vehicle: FeSSIF (fed state simulated intestinal fluid)

SMILES: C[C@]12CC[C@@H]3c4ccc(O)cc4C[C@@H](CCCCCCCCC[S+]([O-])CCCC(F)(F)C(F)(F)F)[C@H]3[C@@H]1CC[C@@H]2O (stereo partly drawn) [fulvestrant]
Clinical response rate [1]: about 50%
Bioavailability [2]: zero

solubility at 24 h [3, 7]: 1370 µg/mL
SMILES: Br.CC/C(=C(/c1ccc(OCCNC/C=C/C(=O)N(C)C)nc1)c1[nH]c2ccccc2c1Cl)c1ccccc1

solubility at 24 h [3, 7]: 1950 µg/mL
SMILES: CC/C(=C(/c1ccc(OCCNC/C=C/C(=O)N(C)C)nc1)c1[nH]c2ccccc2c1Cl)c1ccccc1.O=C(O)/C=C/C(=O)O

solubility at 24 h ([3]; purified water, Vehicle: Water): 237 µg/mL
solubility at 24 h [3, 7]: 1900 µg/mL
Total impurities ([4]; Acidic degradation: 1 M aqueous HCl, room temperature, 24 h, listed as crystalline form I of the compound of formula (II)): 0.34%
Total impurities ([4]; Basic degradation: 1 M aqueous NaOH, room temperature, 24 h, listed as crystalline form I of the compound of formula (II)): 0.35%
Total impurities ([4]; Not degraded (control group, dissolved in acetonitrile:water 1:1), listed as crystalline form I of the compound of formula (II)): 0.34%
Total impurities ([4]; Oxidative degradation: 3% aqueous hydrogen peroxide, room temperature, 24 h, listed as crystalline form I of the compound of formula (II)): 0.92%
AUC(0-t) [6]: 229 µM·h
Cmax [6]: 14 µM
Tmax [6]: 6 h
half-life [6]: 14.9 h
SMILES: CC/C(=C(/c1ccc(OCCNC/C=C/C(=O)N(C)C)nc1)c1[nH]c2ccccc2c1Cl)c1ccccc1.Cl [listing 1 of 2 here]
Hygroscopicity [5]: lower hygroscopicity than the amorphous form

solubility at 24 h ([3]; purified water, Vehicle: Water): < 0.8 µg/mL
solubility at 24 h [3, 7]: 316 µg/mL (≈ 597 µM)
SMILES: CC/C(=C(/c1ccc(OCCNC/C=C/C(=O)N(C)C)nc1)c1[nH]c2ccccc2c1Cl)c1ccccc1

Total impurities ([4]; Acidic degradation: 1 M aqueous HCl, room temperature, 24 h): 0.56%
Total impurities ([4]; Basic degradation: 1 M aqueous NaOH, room temperature, 24 h): 0.54%
Total impurities ([4]; Not degraded (control group, dissolved in acetonitrile:water 1:1)): 0.60%
Total impurities ([4]; Oxidative degradation: 3% aqueous hydrogen peroxide, room temperature, 24 h): 3.5%
SMILES: CC/C(=C(/c1ccc(OCCNC/C=C/C(=O)N(C)C)nc1)c1[nH]c2ccccc2c1Cl)c1ccccc1.Cl [listing 2 of 2 here]
